Assay results published in ChEMBL document CHEMBL1129806, “Diastereoselective synthesis of trans-2-(1-triphenylmethyl-1H-imidazol-4-yl)cyclopropanecarboxylic acids: key intermediates for the preparation of potent and chiral histamine H3 receptor agents” (Bioorg Med Chem Lett, 1997).

Target: Histamine H3 receptor (Rattus norvegicus, UniProt Q9QYN8)
Test: Histamine H3 receptor affinity of compound was determined in rat cortical membranes using the H3 selective agonist ligand, [3H]N-alpha-methylhistamine
Format: cell membranes, Membrane

Chain of Histamine H3 receptor (Q9QYN8 whole entry): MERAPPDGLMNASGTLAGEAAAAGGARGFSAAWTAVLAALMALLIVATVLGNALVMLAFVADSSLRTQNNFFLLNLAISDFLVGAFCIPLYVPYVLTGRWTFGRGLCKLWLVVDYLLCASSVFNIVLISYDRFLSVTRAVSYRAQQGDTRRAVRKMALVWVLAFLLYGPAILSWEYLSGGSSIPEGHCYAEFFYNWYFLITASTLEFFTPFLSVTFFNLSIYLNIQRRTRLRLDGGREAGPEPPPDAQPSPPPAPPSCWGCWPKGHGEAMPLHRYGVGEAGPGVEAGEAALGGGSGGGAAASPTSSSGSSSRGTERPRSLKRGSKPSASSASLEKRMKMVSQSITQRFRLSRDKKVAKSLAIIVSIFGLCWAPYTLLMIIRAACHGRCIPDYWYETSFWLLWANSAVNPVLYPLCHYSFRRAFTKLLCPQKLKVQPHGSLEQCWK

- Ki: 0.3 nM
SMILES: Ic1ccc(COCCCc2c[nH]cn2)cc1 [IODOPROXYFAN]
